Data reported in patent US20240225056A1, “Rhodotorula Capable of Efficiently Degrading Ethyl Carbamate and Application Thereof” (priority 2022, published 2024).

Tested on: R. toruloides DL-XSY01
Assay: Antibiotic sensitivity test, disc diffusion method
Assay type: cell-based
Conditions: YPD-agar, 28° C., 24 h
Method: The antibiotic sensitivity spectrum of the R. toruloides DL-XSY01 was characterized by using a disc diffusion method. […] The above medium with each type of paper was statically cultured at 28° C. for 24 h, and then the diameter of an inhibition zone was measured and counted; and analysis was performed on the drug resistance R (≤14 mm), intermediate-phase I (14-20 mm) or sensitivity S (≥20 mm), with three replicates for each group.

Compound	Antibiotic sensitivity of DL-XSY01 (in words)	Antibiotic sensitivity of DL-XSY01 (inhibition zone class)
CC1(C)S[C@@H]2[C@H](NC(=O)Cc3ccccc3)C(=O)N2[C@H]1C(=O)O [Penicillin G]	sensitive	S (sensitivity S (≥20 mm))
NCC[C@H](O)C(=O)N[C@@H]1C[C@H](N)[C@@H](O[C@H]2O[C@H](CN)[C@@H](O)[C@H](O)[C@H]2O)[C@H](O)[C@H]1O[C@H]1O[C@H](CO)[C@@H](O)[C@H](N)[C@H]1O [Amikacin]	sensitive	S (sensitivity S (≥20 mm))
CN(C)[C@@H]1C(O)=C(C(N)=O)C(=O)[C@@]2(O)C(O)=C3C(=O)c4c(O)cccc4[C@@](C)(O)[C@H]3C[C@@H]12 [Tetracycline]		S (sensitivity S (≥20 mm))
CN[C@H](CC(C)C)C(=O)N[C@H]1C(=O)N[C@@H](CC(N)=O)C(=O)N[C@H]2C(=O)N[C@H]3C(=O)N[C@H](C(=O)N[C@H](C(=O)O)c4cc(O)cc(O)c4-c4cc3ccc4O)[C@H](O)c3ccc(c(Cl)c3)Oc3cc2cc(c3O[C@@H]2O[C@H](CO)[C@@H](O)[C@H](O)[C@H]2O[C@H]2C[C@](C)(N)[C@H](O)[C@H](C)O2)Oc2ccc(cc2Cl)[C@H]1O [Vancomycin]	sensitive	S (sensitivity S (≥20 mm))
CC[C@H]1OC(=O)[C@H](C)[C@@H](O[C@H]2C[C@@](C)(OC)[C@@H](O)[C@H](C)O2)[C@H](C)[C@@H](O[C@@H]2O[C@H](C)C[C@H](N(C)C)[C@H]2O)[C@](C)(O)C[C@@H](C)C(=O)[C@H](C)[C@@H](O)[C@]1(C)O [Erythromycin]	sensitive	S (sensitivity S (≥20 mm))
CC1=C(C(=O)O)N2C(=O)[C@@H](NC(=O)[C@H](N)c3ccccc3)[C@H]2SC1 [Cephalexin]	moderately sensitive	I (intermediate-phase I (14-20 mm))
[H]/N=C(/N)N[C@H]1[C@H](O)[C@@H](O)[C@H](O[C@@H]2O[C@@H](C)[C@](O)(C=O)[C@H]2O[C@@H]2O[C@@H](CO)[C@H](O)[C@@H](O)[C@@H]2NC)[C@@H](N/C(N)=N\[H])[C@@H]1O [Streptomycin]	sensitive	S (sensitivity S (≥20 mm))
CC1(C)S[C@@H]2[C@H](NC(=O)[C@H](N)c3ccccc3)C(=O)N2[C@H]1C(=O)O [Ampicillin]	sensitive	S (sensitivity S (≥20 mm))
Cc1nnc(SCC2=C(C(=O)O)N3C(=O)[C@@H](NC(=O)Cn4cnnn4)[C@H]3SC2)s1 [Cefazolin]	sensitive	S (sensitivity S (≥20 mm))
CN(C)c1ccc(O)c2c1C[C@H]1C[C@H]3[C@H](N(C)C)C(O)=C(C(N)=O)C(=O)[C@@]3(O)C(O)=C1C2=O [Minocycline]		S (sensitivity S (≥20 mm))
Gentamicin	sensitive	S (sensitivity S (≥20 mm))
